# Results from US7906554B2, “Combination chemotherapy compositions and methods” (Novogen Research Pty Ltd, priority 2002, dated 2011).
# Where two headings read alike, the source gives them in different places.
# What was measured:
# [1] = tested on: ovarian cancer cells isolated from ascites and ovarian cancer cell lines CP70 and A2780; assay: Cell viability (CellTiter) of ovarian cancer cells with or without dehydroequol pre-treatment; type: cell-based
# Description: (§1) The in vitro studies were performed using ovarian cancer cells isolated from ascites using an immunomagnetic assay and established ovarian cancer cell lines CP70 and A2780. Cell viability was determined using CellTiter©. Apoptosis was evaluated using Hoechst 33342 dye. The in vivo effect was tested by injecting CP70 subcutaneously into nude mice. Animals received daily oral administration of dehydroequol, 10 or 20 mg/kg for 8 days alone or in combination with cisplatin 0.5 mg/kg. After 8 days the animals were sacrificed and the tumour volume was measured.
# [2] = tested on: carboplatin and paclitaxel resistant cells; assay: Decrease in cell viability in chemoresistant cells; type: cell-based
# Description: as §1
# HPAC = assay: Cell viability (CellTiter), concurrent dehydroequol and cisplatin; type: cell-based
# Description: (§2) The effect of a composition comprising the platinum complex cisplatin and the isoflavonoid compound dehydroequol (compound No. 12) on various cancer cell lines was assessed on culture plates. Cell viability was determined using CellTiter©. Apoptosis was evaluated using Hoechst 33342 dye.
# A2780 = assay: as above; type: cell-based
# Description: as §2
# CP70 [3] = assay: as above; type: cell-based
# Description: as §2
# DU145 = assay: as above; type: cell-based
# Description: as §2
# PC3 = assay: as above; type: cell-based
# Description: as §2
# CP70 [4] = assay: In vivo CP70 tumour injected subcutaneously into nude mice; details: cisplatin 0.5 mg/kg alone
# Description: as §1
# caspase 3 = assay: Western blot analysis of resistant ovarian cancer cells; type: cell-based; details: chemoresistant cells, only after pre-treatment with dehydroequol (FIG. 5)
# Source text: FIG. 5 represents a Western Blot analysis of carboplatin or paclitaxel treatment resistant ovarian cancer CP70 cells with and without dehydroequol pre-treatment.
# Additionally, the active form of caspase 3 in chemoresistant cells was not detected.
# [5] = tested on: paclitaxel resistant cell line, R182; assay: Cell viability (CellTiter), paclitaxel resistant cell line; type: cell-based; details: R182, no pre-treatment (FIG. 2)
# Description: as §1
compound,measurement,setting,value
N.N.O=C([O-])C1(C(=O)[O-])CCC1.[Pt+2] [carboplatin],IC50 for carboplatin after dehydroequol pre-treatment,"[1]; pre-treatment with dehydroequol (10 μg/ml) for two hours, +/−0.5 (FIG. 3)",0.5 µg/mL
same,decrease in cell viability,[2]; pre-treatment (2 h) with DHE followed by the agent for 48 h,30%
"N.N.[Cl][Pt][Cl] [Cisplatin, cis-diamminedichloroplatinum (II)]",IC50,"HPAC; co-incubation with 2 uM dehydroequol, read-out: Cisplatin IC50 +2 uM dehydroequol",7700 nM
same,IC50,"HPAC; single agent, read-out: IC50",34500 nM
same,IC50,"A2780; A2780, co-incubation with 2 uM dehydroequol, read-out: Cisplatin IC50 +2 uM dehydroequol",< 1 nM
same,IC50,"A2780; A2780, single agent, read-out: IC50",3000 nM
same,IC50,"CP70 [3]; CP70, co-incubation with 2 uM dehydroequol, read-out: Cisplatin IC50 +2 uM dehydroequol",100 nM
same,IC50,"CP70 [3]; CP70, single agent, read-out: IC50",10400 nM
same,IC50,"DU145; DU145, co-incubation with 2 uM dehydroequol, read-out: Cisplatin IC50 +2 uM dehydroequol",100 nM
same,IC50,"DU145; DU145, single agent, read-out: IC50",5000 nM
same,IC50,"PC3; PC3, co-incubation with 2 uM dehydroequol, read-out: Cisplatin IC50 +2 uM dehydroequol",< 1 nM
same,IC50,"PC3; PC3, single agent, read-out: IC50",400 nM
same,effect on tumour size,CP70 [4],no effect
Oc1ccc(C2=Cc3ccc(O)cc3OC2)cc1 [dehydroequol],IC50,HPAC; Homo sapiens,50000 nM
same,IC50,"A2780; Homo sapiens, A2780",1700 nM
same,IC50,CP70 [3],1500 nM
same,IC50,"DU145; Homo sapiens, DU-145",5900 nM
same,IC50,"PC3; Homo sapiens, PC-3",9600 nM
same,Caspase 3 activation,caspase 3,Caspase 3 activation was observed
same,decrease in cell viability,[2]; pre-treatment alone for 2 h,20%
same,decrease in cell viability,[2]; treatment for 48 hours,60-80%
CC(=O)O[C@H]1C(=O)[C@@]2(C)[C@H]([C@H](OC(=O)c3ccccc3)[C@]3(O)C[C@H](OC(=O)[C@H](O)[C@@H](NC(=O)c4ccccc4)c4ccccc4)C(C)=C1C3(C)C)[C@]1(OC(C)=O)CO[C@@H]1C[C@@H]2O [paclitaxel],IC50,"[1]; Homo sapiens, A2780, pre-treatment with dehydroequol (10 μg/ml) for two hours (FIG. 4), read-out: IC50 for paclitaxel after dehydroequol pre-treatment",50 nM
same,IC50,[5],> 2000 nM
